Source: ChEMBL document CHEMBL5143602, “Design, synthesis and antibacterial evaluation of pleuromutilin derivatives” (Bioorg Med Chem, 2022)
Values after ≈ are worked out from the molar mass of the structure shown.

Assays:
Staphylococcus aureus [1] = test: Antibacterial activity against methicillin-sensitive Staphylococcus aureus ATCC 29213 assessed as inhibition of bacterial growth incubated for 18 hrs by two-fold serial dilution method; format: functional
[2] = tested on: Staphylococcus epidermidis; test: Antibacterial activity against Staphylococcus epidermidis ATCC12228 assessed as inhibition of bacterial growth incubated for 18 hrs by two-fold serial dilution method; format: functional
Staphylococcus aureus [3] = test: Antibacterial activity against methicillin-resistant Staphylococcus aureus ATCC 43300 assessed as inhibition of bacterial growth incubated for 18 hrs by two-fold serial dilution method; format: functional
Enterococcus faecium = test: Antibacterial activity against Enterococcus faecium ATCC19434 assessed as inhibition of bacterial growth incubated for 18 hrs by two-fold serial dilution method; format: functional
[4] = tested on: Mycoplasmoides pneumoniae; test: Antibacterial activity against Mycoplasma pneumoniae ATCC15531 assessed as inhibition of bacterial growth incubated for 18 hrs by two-fold serial dilution method; format: functional
[5] = tested on: Mycoplasmoides pneumoniae; test: Antibacterial activity against drug resistant Mycoplasma pneumoniae assessed as inhibition of bacterial growth incubated for 18 hrs by two-fold serial dilution method; format: functional
[6] = tested on: Mycoplasmoides pneumoniae; test: Antibacterial activity against Mycoplasma pneumoniae ATCC29342 assessed as inhibition of bacterial growth incubated for 18 hrs by two-fold serial dilution method; format: functional
MCF7 = test: Cytotoxicity against human MCF7 cells assessed as cell growth inhibition measured after 72 hrs by MTT assay; format: functional, cell-based; details: MCF7, 72 h
HGC-27 = test: Cytotoxicity against human HGC-27 cells assessed as cell growth inhibition measured after 72 hrs by MTT assay; format: functional, cell-based; details: HGC-27, 72 h
HepG2 = test: Cytotoxicity against human HepG2 cells assessed as cell growth inhibition measured after 72 hrs by MTT assay; format: functional, cell-based; details: HepG2, 72 h
HT-29 = test: Cytotoxicity against human HT-29 cells assessed as cell growth inhibition measured after 72 hrs by MTT assay; format: functional, cell-based; details: HT-29, 72 h
U-87 MG = test: Cytotoxicity against human U87 cells assessed as cell growth inhibition measured after 72 hrs by MTT assay; format: functional, cell-based, U-87MG ATCC

SMILES | MIC (Staphylococcus aureus [1]) [µg/mL] | MIC [2] [µg/mL] | MIC (Staphylococcus aureus [3]) [µg/mL] | MIC (Enterococcus faecium) [µg/mL] | MIC [4] [µg/mL] | MIC [5] [µg/mL] | MIC [6] [µg/mL] | IC50 (MCF7) [µM] | IC50 (HGC-27) [µM] | IC50 (HepG2) [µM] | IC50 (HT-29) [µM] | IC50 (U-87 MG) [µM]
C=C[C@]1(C)C[C@@H](OC(=O)CNC(=S)Nc2ccccc2)[C@]2(C)[C@H](C)CC[C@]3(CCC(=O)[C@H]32)[C@@H](C)[C@@H]1O | 1 (≈ 1.95 µM) | > 64 | 1 (≈ 1.95 µM) | 16 (≈ 31.2 µM) | – | – | – | – | – | – | – | –
C=C[C@]1(C)C[C@@H](OC(=O)CNC(=S)Nc2ccc(C(F)(F)F)cc2)[C@]2(C)[C@H](C)CC[C@]3(CCC(=O)[C@H]32)[C@@H](C)[C@@H]1O | 1 (≈ 1.72 µM) | > 64 | 1 (≈ 1.72 µM) | 8 (≈ 13.8 µM) | – | – | – | – | – | – | – | –
C=C[C@]1(C)C[C@@H](OC(=O)CNC(=O)NCC)[C@]2(C)[C@H](C)CC[C@]3(CCC(=O)[C@H]32)[C@@H](C)[C@@H]1O | 2 (≈ 4.46 µM) | > 64 | 2 (≈ 4.46 µM) | 32 (≈ 71.3 µM) | – | – | – | – | – | – | – | –
C=C[C@]1(C)C[C@@H](OC(=O)CNC(=O)NC2CCCCC2)[C@]2(C)[C@H](C)CC[C@]3(CCC(=O)[C@H]32)[C@@H](C)[C@@H]1O | 2 (≈ 3.98 µM) | > 64 | 2 (≈ 3.98 µM) | 8 (≈ 15.9 µM) | – | – | – | – | – | – | – | –
C=C[C@]1(C)C[C@@H](OC(=O)CNC(=S)Nc2ccccc2C)[C@]2(C)[C@H](C)CC[C@]3(CCC(=O)[C@H]32)[C@@H](C)[C@@H]1O | 4 (≈ 7.59 µM) | > 64 | 2 (≈ 3.8 µM) | 16 (≈ 30.4 µM) | – | – | – | – | – | – | – | –
C=C[C@]1(C)C[C@@H](OC(=O)CNC(=S)NC(C)=O)[C@]2(C)[C@H](C)CC[C@]3(CCC(=O)[C@H]32)[C@@H](C)[C@@H]1O | 2 (≈ 4.18 µM) | > 64 | 2 (≈ 4.18 µM) | 16 (≈ 33.4 µM) | – | – | – | – | – | – | – | –
C=C[C@]1(C)C[C@@H](OC(=O)CNC(=O)Nc2cccc(C)c2)[C@]2(C)[C@H](C)CC[C@]3(CCC(=O)[C@H]32)[C@@H](C)[C@@H]1O | 0.125 (≈ 0.245 µM) | > 64 | 0.5 (≈ 0.979 µM) | 16 (≈ 31.3 µM) | – | – | – | – | – | – | – | –
C=C[C@]1(C)C[C@@H](OC(=O)CNC(=O)NC(=O)c2ccccc2F)[C@]2(C)[C@H](C)CC[C@]3(CCC(=O)[C@H]32)[C@@H](C)[C@@H]1O | 0.5 (≈ 0.921 µM) | > 64 | 0.5 (≈ 0.921 µM) | 8 (≈ 14.7 µM) | 1 (≈ 1.84 µM) | 2 (≈ 3.69 µM) | > 8 | – | – | – | – | –
C=C[C@]1(C)C[C@@H](OC(=O)CNC(=O)Nc2ccccc2)[C@]2(C)[C@H](C)CC[C@]3(CCC(=O)[C@H]32)[C@@H](C)[C@@H]1O | 0.5 (≈ 1.01 µM) | > 64 | 0.5 (≈ 1.01 µM) | 32 (≈ 64.4 µM) | – | – | – | – | – | – | – | –
C=C[C@]1(C)C[C@@H](OC(=O)CNC(=O)NCCC)[C@]2(C)[C@H](C)CC[C@]3(CCC(=O)[C@H]32)[C@@H](C)[C@@H]1O | 2 (≈ 4.32 µM) | > 64 | 2 (≈ 4.32 µM) | 32 (≈ 69.2 µM) | – | – | – | – | – | – | – | –
C=C[C@]1(C)C[C@@H](OC(=O)CNC(=O)Nc2ccccc2Br)[C@]2(C)[C@H](C)CC[C@]3(CCC(=O)[C@H]32)[C@@H](C)[C@@H]1O | 0.25 (≈ 0.434 µM) | > 64 | 0.25 (≈ 0.434 µM) | 32 (≈ 55.6 µM) | 0.5 (≈ 0.869 µM) | 2 (≈ 3.47 µM) | 0.5 (≈ 0.869 µM) | > 10 | > 10 | > 10 | > 10 | > 10
C=C[C@]1(C)C[C@@H](OC(=O)CNC(=S)NC2CCCCC2)[C@]2(C)[C@H](C)CC[C@]3(CCC(=O)[C@H]32)[C@@H](C)[C@@H]1O | 1 (≈ 1.93 µM) | > 64 | 1 (≈ 1.93 µM) | 32 (≈ 61.7 µM) | – | – | – | – | – | – | – | –
C=C[C@]1(C)C[C@@H](OC(=O)CNC(=O)Nc2ccc(F)cc2)[C@]2(C)[C@H](C)CC[C@]3(CCC(=O)[C@H]32)[C@@H](C)[C@@H]1O | 0.5 (≈ 0.972 µM) | > 64 | 0.125 (≈ 0.243 µM) | 16 (≈ 31.1 µM) | 0.25 (≈ 0.486 µM) | 1 (≈ 1.94 µM) | 0.125 (≈ 0.243 µM) | > 10 | > 10 | > 10 | > 10 | > 10
C=C[C@]1(C)C[C@@H](OC(=O)CNC(=O)Nc2cccc(Cl)c2)[C@]2(C)[C@H](C)CC[C@]3(CCC(=O)[C@H]32)[C@@H](C)[C@@H]1O | 1 (≈ 1.88 µM) | > 64 | 0.5 (≈ 0.941 µM) | 8 (≈ 15.1 µM) | – | – | – | – | – | – | – | –
C=C[C@]1(C)C[C@@H](OC(=O)CNC(=S)NC(=O)c2ccc(F)cc2)[C@]2(C)[C@H](C)CC[C@]3(CCC(=O)[C@H]32)[C@@H](C)[C@@H]1O | 4 (≈ 7.16 µM) | > 64 | 4 (≈ 7.16 µM) | 8 (≈ 14.3 µM) | – | – | – | – | – | – | – | –
C=C[C@]1(C)C[C@@H](OC(=O)CNC(=S)Nc2ccc(OC)cc2)[C@]2(C)[C@H](C)CC[C@]3(CCC(=O)[C@H]32)[C@@H](C)[C@@H]1O | 1 (≈ 1.84 µM) | > 64 | 0.5 (≈ 0.921 µM) | 16 (≈ 29.5 µM) | – | – | – | – | – | – | – | –
